Data: patent publication US9855281B2, “Libido-enhancing therapeutic and use” (Scott Freeman Consultant, LLC, priority 2013, dated 2018)
“Also recorded” adds a separate entry of the source.

Tests used:
male rats = test: In vivo libido stimulation assessment (mounts of rat couples); design: species or system Rattus novergicus, Wistar; conditions: for mount kinetics profile along the night: FIGS. 12A-12F, time after coupling
Description: Female and male rats (Rattus novergicus) Wistar strain, with 200-280 g and 8-12 weeks old, were purchased from University of São Paulo Central Animal Care Unity. They were kept in controlled environment, including dark-light periods (12 hours each), temperature (22° to 25° C.), and with free access to water and food.
Female Wistar rats, weighing about 250 g, were ovariectomized. The procedure initiated inducing general anesthesia with Dopalen (Ketamin 70 mg/kg) and Anasedan (Xilazin 12 mg/kg), then abdominal wall was […] by the linea alba region, ovaries location, ligation of vessels supplying the ovaries and the procedure was completed with ovariectomy, itself, as well as the suture of the abdominal wall and skin. After surgery the animals received analgesic (tramadol 2 mg/kg), antibiotic (enrofloxacin, 10 mg/kg) and anti-inflammatory (Maxicam—2 mg/kg) for at least one week, or more if necessary.
Pseudo-estrus inducing. The females received estradiol (0.2 mg/day) subcutaneously for two weeks after ovariotomoy for pseudo-estrus state inducing. This condition was evaluated by vaginal smears each two days after estradiol treatment beginning. Sterile cotton-tipped swabs wetted in distilled water were gently and quickly introduced into the vaginal orifice, carefully rotated (one twist) against the vaginal wall. Rats were not anesthetized during smear collection. Afterwards, the collected sample of vaginal epithelial cells was placed on glass slides, dried at 37° C., and fixed in an ethanol-ether solution (1:1) for one minute.
The slides were then examined under light microscopy. Only females in pseudo-estrus conditions were used for libido stimulation assessment (PACCOLA et al, 2013).
Libido stimulation assessment. For libido stimulation assessments, first male rats, weighing about 250-280 g, had their penis anesthetized with 2% lidocaine by topical route 10 minutes before treatment. The three drugs were administered orally at 50 mg/kg each two days for six days (each rat received three doses). Nandrolone (IM) was used as the positive control group while olive oil and water were used as negative controls (orally administrated), as described below in TABLE 2. After one hour of treatment, couples were put together in a box, and a video camera with night vision was adequately positioned to encompass all the groups in the video, recording overnight the matches.
Analysis of the videos was performed according to the following parameters: time to first mating, duration of mounts, and quantity of mounts.
The libido studies focused the investigation in how drugs would stimulate male rats to increase matching. Considering that sexual activity in animals is related with reproduction and not only with pleasure, assessment of increase desire is particular subjective. To ensure that the observations were related with Central Nervous System modulation, 2% Lidocaine was topically applied at penis glans, to avoid any local stimulation.
The animals were treated each two days with 50 mg/Kg of test drugs (given orally), water and olive oil as negative control (given orally) and nandrolone (IM).

human = test: Accidental physical contact of a human with the compositions (Example 1); format: in vivo; conditions: accidental physical contact with Formulas (I), (II) and (III) together while synthesizing
Source text: A human came in physical contact with the compositions of the libido-enhancing therapeutics of Formula (I), Formula (II), and Formula (III) by accident while synthesizing the compositions.

[1] = rats, 50 mg/Kg orally, nandrolone IM

SMILES | total number of mounts after each treatment (male rats; FIG. 10, 50 mg/Kg orally each two days, three doses, nandrolone IM, compared with controls and other drugs) | number of mounts per hour, difference to nandrolone (male rats; FIG. 11, 50 mg/Kg orally, nandrolone IM) | mount kinetics profile along the night (male rats; 50 mg/Kg orally, nandrolone IM, listed as CAS 5138-34-1, 50 mg/kg) | mount kinetics profile along the night (male rats; 50 mg/Kg orally, nandrolone IM, listed as CAS 5238-34-1, 50 mg/kg) | stress or fatigue after each intercourse (male rats; rats, 50 mg/Kg orally) | libido stimulation (male rats; [1]) | arousal and libido (human) | mount kinetics profile along the night (male rats; 50 mg/Kg orally, nandrolone IM)
CC(=O)O[C@H]1CCC2C3CC[C@H]4CC(=O)CC[C@H]4C3CC[C@@]21C (stereo partly drawn) [Formula (I), (5S,10R,13S,17S)-13-methyl-3-oxohexadecahydro-1H-cyclopenta[a]phenanthren-17yl acetate] | significantly increased | more than twice | low activity at the first three hours after coupling; also recorded: intense and sustainable activity was achieved after the third hour until the seventieth hour of observation | took a long time to have some effect | no kind of stress of fatigue was observed | effective and sustainable late libido stimulation for greater than seven hours | weekend-long period of arousal and increased libido | 
CC(=O)O[C@H]1CCC2C3CC[C@H]4C[C@@H](O)CC[C@H]4C3CC[C@@]21C (stereo partly drawn) [Formula (II), (3S,5S,10R,13S,17S)-3-hydroxy-13-methylhexadecahydro-1H-cyclopenta[a]phenanthren-17yl acetate] |  |  |  |  |  |  | weekend-long period of arousal and increased libido | total decrease of activity after 2 hours coupling
C[C@]12CCC3C(CC[C@H]4CC(=O)CC[C@H]34)C1CC[C@@H]2O (stereo partly drawn) [Formula (III), (5S,10S,13S,17S)-17-hydroxy-13-methyltetradecahydro-1H-cyclopenta[a]phenanthren-3(2H)-one] |  |  |  |  |  |  | weekend-long period of arousal and increased libido | few mounts in subsequently hours
C[C@]12CC[C@H]3[C@@H](CCC4=CC(=O)CC[C@@H]43)[C@@H]1CC[C@@H]2O [Nandrolone, reference compound] |  |  |  |  |  | enhance libido early (hours) |  | low stimulation at the first three hours with a peak of activity at the fourth hour retuning to baseline (zero activity) at the sixth hour
